Patent US4839366A, “Methylthioquinolyl guanidine derivative, process of preparation thereof and pharmaceutical compositions therefrom” (Chiesi Farmaceutici S.p.A., priority 1983, dated 1989)
Read-outs that look alike come from different tables or passages of the source.

Assays:
[1] = test system: phenylquinone writhings in the mouse; assay: Phenylquinone writhings in the mouse; assay type: in vivo; settings: for ED50: Mus musculus, from dose-response curves; for ED50 / % inhibition vs controls (writhings) / No. of writhings (X ± SE): oral
Protocol: The method used was that of SIEGMUND et al. (Siegmund et al. J. Pharmacol. Exp. Ther. 119, 184, 1957) modified (Arzneim. Forsch. 31(1), 87, 1981).
Male mice, 19-22 g, fasted for 18 h with free access to water, received the test drugs suspended in 0.2% Tween 80 aqueous solution (10 ml/Kg) by esophageal tube, the controls receiving the vehicle only.
One hour later all the animals were given an intraperitoneal injection of 0.02% phenylquinone solution in 5% aqueous ethanol (10 ml/Kg).
A `blind` observer recorded the number of writhings in each animal from the 5th to the 15th min after phenylquinone administration.

[2] = test system: Carrageenin-induced paw edema in the rat; assay: Carrageenin paw edema in the rat; assay type: in vivo; settings: for % inhibition vs controls, AUC (paw edema): AUC of paw volume against time
Protocol: Paw edema was induced in male rats fasted for 18 h but with free access to water, by the method of WINTER et al. (Winter C. A. et al. Proc. Soc. Exp. Biol. Med. 111, 544, 1962) injecting 0.1 ml carrageenin 1% in physiological saline into the right hind paw aponeurosis.
60 min before induction of edema the drugs suspended in 0.2% Tween
80 aqueous solution were dosed by gastric tube (20 ml/Kg); the controls received the vehicle only.
The volume of the right paw was measured by plethysmography immediately before (time 0) and 1, 2, 3, 4, 6 h after subplantar injection of the irritant.
The area under the curve expressing the paw volume plotted against time (AUC) was calculated for each animal.
The results, expressed as percent inhibition of edema development in treated animals as compared to the controls and as ED40 values obtained from the regression lines for dose-AUC, are reported in Table 2.

[3] = test system: gastric ulcers in the rat; assay: Acute effect on gastrointestinal tract: gastric ulcers in the rat; assay type: in vivo; settings: for Potency ratio relative to timegadine: gastric ulcers, UD50; for Gastric ulcers (X ± SE), No. / Gastric ulcers (X ± SE), mm / Rats with gastric ulcers: oral; for Gastric ulcers (X ± SE), No.: number of ulcerated spots; for Gastric ulcers (X ± SE), mm: sum of maximum diameters; for Rats with gastric ulcers: ulceration 2 mm and over
Protocol: (§1) Male rats weithing 250-280 g were starved for 18 h but allowed free access to water and the drugs were delivered by esophageal tube (suspension in 0.2% Tween 80 aqueous solution, 10 ml/Kg).
(§2) Control animals received the vehicle only (10 ml/Kg).
(§3) Five hours after drug administration the rats were killed.
(§4) The stomach was slit along the lesser curvature, washed under running water and examined for haemorrhagic lesions in the glandular part of the mucosa: these lesions will be conventionally defined as `ulcers`.
(§5) The following were recorded:
(§6) (a) the sum of the maximum diameters of all the ulcerated spots;
(§7) (b) the number of ulcerated spots.
(§8) The UD50 was calculated by the method of LITCHFIELD and WILCOXON (Litchfield J. T., Wilcoxon F. J. Pharm. Exp. Ther. 96, 99-113, 1949), all animals with gastric lesion whose sum (a) was 2 mm or more being rated as `ulcerated`.

[4] = as above; assay type: in vivo; settings: rat, in vivo, po
Protocol: as §1, §2, §3, §4, §5, §6, §7, §8

[5] = Acute toxicity, single oral administration; settings: mouse, in vivo, read-out: LD50 approx
Protocol: The toxicity for single administration has been determined by the oral route in IVa:NMRI (SPF) fasted male mice, with water ad libitum, 18 hours before the experiment.

[6] = Determination of the therapeutical index (UD50/ED40); assay type: in vivo, rat; settings: gastric ulcers UD50 / paw edema ED40
Protocol: From the UD50 /ED40 ratio (antiinflammatory activity values obtained from the regression lines for dose--AUC) the therapeutic index were calculated (Table 5).

[7] = Rattus norvegicus, oral, from regression lines for dose-AUC (Table 2), read-out: ED40
[8] = restated in Table 5, from regression lines for dose-AUC

CSc1cc(NC(=Nc2nccs2)NC2CCCCC2)c2ccccc2n1 [Compound I, N-cyclohexyl-N"-4-(2-methylthioquinolyl)-N'-2-thiazolyl-guanidine]
ED50 [1]: 18.7 µmol/kg
analgesic activity compared with timegadine ([1]; in words): higher than those of timegadine
% inhibition vs controls (writhings) ([1]; 18.3 μmol/Kg): 47.0%
No. of writhings (X ± SE) ([1]; 18.3 μmol/Kg): 19.5 ± 4.8
% inhibition vs controls (writhings) ([1]; 55 μmol/Kg): 79.3%
No. of writhings (X ± SE) ([1]; 55 μmol/Kg): 7.6 ± 2.4
% inhibition vs controls (writhings) ([1]; 164 μmol/Kg): 96.5%
No. of writhings (X ± SE) ([1]; 164 μmol/Kg): 1.3 ± 0.5
Potency ratio relative to timegadine ([1]; phenylquinone writhings, ED50): 3.1
ED40 [2, 7]: 111 µmol/kg
Potency ratio relative to timegadine ([2]; carrageenin paw edema, ED40 (Table 2)): 1.32
antiinflammatory activity compared with timegadine ([2]; in words): higher than those of timegadine
% inhibition vs controls (paw edema), 1 h ([2]; oral, 30 μmol/kg): 4%
% inhibition vs controls (paw edema), 2 h ([2]; oral, 30 μmol/kg): 47%
% inhibition vs controls (paw edema), 3 h ([2]; oral, 30 μmol/kg): 40%
% inhibition vs controls (paw edema), 4 h ([2]; oral, 30 μmol/kg): 28%
% inhibition vs controls (paw edema), 6 h ([2]; oral, 30 μmol/kg): 8%
% inhibition vs controls, AUC (paw edema) ([2]; oral, 30 μmol/kg): 27.9%
% inhibition vs controls (paw edema), 1 h ([2]; oral, 91 μmol/kg): 13%
% inhibition vs controls (paw edema), 2 h ([2]; oral, 91 μmol/kg): 51%
% inhibition vs controls (paw edema), 3 h ([2]; oral, 91 μmol/kg): 48%
% inhibition vs controls (paw edema), 4 h ([2]; oral, 91 μmol/kg): 42%
% inhibition vs controls (paw edema), 6 h ([2]; oral, 91 μmol/kg): 17%
% inhibition vs controls, AUC (paw edema) ([2]; oral, 91 μmol/kg): 37.3%
% inhibition vs controls (paw edema), 1 h ([2]; oral, 274 μmol/kg): 17%
% inhibition vs controls (paw edema), 2 h ([2]; oral, 274 μmol/kg): 53%
% inhibition vs controls (paw edema), 3 h ([2]; oral, 274 μmol/kg): 58%
% inhibition vs controls (paw edema), 4 h ([2]; oral, 274 μmol/kg): 56%
% inhibition vs controls (paw edema), 6 h ([2]; oral, 274 μmol/kg): 33%
% inhibition vs controls, AUC (paw edema) ([2]; oral, 274 μmol/kg): 49.0%
ED40 [2, 8]: 111 µmol/kg
Potency ratio relative to timegadine [3]: 0.47
gastric irritant potential compared with timegadine ([3]; in words): lesser gastric irritant potential
Gastric ulcers (X ± SE), No. ([3]; 115 μmol/Kg): 0.5 ± 0.3
Gastric ulcers (X ± SE), mm ([3]; 115 μmol/Kg): 0.5 ± 0.3 mm
Rats with gastric ulcers ([3]; 115 μmol/Kg): 1/10
Gastric ulcers (X ± SE), No. ([3]; 230 μmol/Kg): 0.6 ± 0.3
Gastric ulcers (X ± SE), mm ([3]; 230 μmol/Kg): 1.2 ± 0.8 mm
Rats with gastric ulcers ([3]; 230 μmol/Kg): 1/10
Gastric ulcers (X ± SE), No. ([3]; 461 μmol/Kg): 2.1 ± 1.0
Gastric ulcers (X ± SE), mm ([3]; 461 μmol/Kg): 3.8 ± 1.8 mm
Rats with gastric ulcers ([3]; 461 μmol/Kg): 4/10
Gastric ulcers (X ± SE), No. ([3]; 922 μmol/Kg): 4.8 ± 1.5
Gastric ulcers (X ± SE), mm ([3]; 922 μmol/Kg): 8.7 ± 3.5 mm
Rats with gastric ulcers ([3]; 922 μmol/Kg): 5/10
TD50 at 5 h [4]: 887 µmol/kg
LD50 ([5]; po): > 1000 mg/kg
T.I. (UD50/ED40) [6]: 7.99

Cc1cc(/N=C(\Nc2nccs2)NC2CCCCC2)c2ccccc2n1 [timegadine, N-cyclohexyl-N"-4-(2-methylquinolyl)-N'-2-thiazolyl guanidine, reference compound]
ED50 [1]: 58.9 µmol/kg
% inhibition vs controls (writhings) ([1]; 18.3 μmol/Kg): 26.1%
No. of writhings (X ± SE) ([1]; 18.3 μmol/Kg): 27.2 ± 4.1
% inhibition vs controls (writhings) ([1]; 55 μmol/Kg): 36.4%
No. of writhings (X ± SE) ([1]; 55 μmol/Kg): 23.4 ± 4.6
% inhibition vs controls (writhings) ([1]; 164 μmol/Kg): 82.1%
No. of writhings (X ± SE) ([1]; 164 μmol/Kg): 6.6 ± 2.9
ED40 [2, 7]: 147 µmol/kg
% inhibition vs controls (paw edema), 1 h ([2]; oral, 30 μmol/kg): 17%
% inhibition vs controls (paw edema), 2 h ([2]; oral, 30 μmol/kg): 18%
% inhibition vs controls (paw edema), 3 h ([2]; oral, 30 μmol/kg): 11%
% inhibition vs controls (paw edema), 4 h ([2]; oral, 30 μmol/kg): 15%
% inhibition vs controls (paw edema), 6 h ([2]; oral, 30 μmol/kg): 4%
% inhibition vs controls, AUC (paw edema) ([2]; oral, 30 μmol/kg): 12.3%
% inhibition vs controls (paw edema), 1 h ([2]; oral, 91 μmol/kg): 38%
% inhibition vs controls (paw edema), 2 h ([2]; oral, 91 μmol/kg): 51%
% inhibition vs controls (paw edema), 3 h ([2]; oral, 91 μmol/kg): 30%
% inhibition vs controls (paw edema), 4 h ([2]; oral, 91 μmol/kg): 27%
% inhibition vs controls (paw edema), 6 h ([2]; oral, 91 μmol/kg): 9%
% inhibition vs controls, AUC (paw edema) ([2]; oral, 91 μmol/kg): 28.4%
% inhibition vs controls (paw edema), 1 h ([2]; oral, 274 μmol/kg): 33%
% inhibition vs controls (paw edema), 2 h ([2]; oral, 274 μmol/kg): 55%
% inhibition vs controls (paw edema), 3 h ([2]; oral, 274 μmol/kg): 58%
% inhibition vs controls (paw edema), 4 h ([2]; oral, 274 μmol/kg): 57%
% inhibition vs controls (paw edema), 6 h ([2]; oral, 274 μmol/kg): 44%
% inhibition vs controls, AUC (paw edema) ([2]; oral, 274 μmol/kg): 52.9%
ED40 [2, 8]: 147 µmol/kg
Potency ratio relative to timegadine [3]: 1
Gastric ulcers (X ± SE), No. ([3]; 115 μmol/Kg): 0.3 ± 0.2
Gastric ulcers (X ± SE), mm ([3]; 115 μmol/Kg): 0.4 ± 0.2 mm
Rats with gastric ulcers ([3]; 115 μmol/Kg): 0/10
Gastric ulcers (X ± SE), No. ([3]; 230 μmol/Kg): 0.8 ± 0.3
Gastric ulcers (X ± SE), mm ([3]; 230 μmol/Kg): 1.3 ± 0.7 mm
Rats with gastric ulcers ([3]; 230 μmol/Kg): 2/10
Gastric ulcers (X ± SE), No. ([3]; 461 μmol/Kg): 4.4 ± 1.5
Gastric ulcers (X ± SE), mm ([3]; 461 μmol/Kg): 6.7 ± 2.3 mm
Rats with gastric ulcers ([3]; 461 μmol/Kg): 6/10
Gastric ulcers (X ± SE), No. ([3]; 922 μmol/Kg): 9.4 ± 1.8
Gastric ulcers (X ± SE), mm ([3]; 922 μmol/Kg): 18.5 ± 4.4 mm
Rats with gastric ulcers ([3]; 922 μmol/Kg): 9/10
TD50 at 5 h [4]: 413 µmol/kg
LD50 ([5]; oral, single administration, male mice, interpolation on Probits paper): > 1000 mg/kg
T.I. (UD50/ED40) [6]: 2.83
